According to patent US10597398B2, “Suppression and regeneration promoting effect of low molecular weight compound on cancer and fibrosis” (NATIONAL UNIVERSITY CORPORATION TOTTORI UNIVERSITY, priority 2015, dated 2020):

Legend:
Type in all cases: cell-based, human
[1] = tested on: HuH-7 cells; assay: Growth inhibitory effect on cancer cells (WST assay), Example 2.3; details: for IC50: HuH-7 cells, WST assay, concentrations 0-50 μM, control 0.1% DMSO; for IC50 compared with IC-2: comparison with IC-2
Method: HuH-7 cells, a human liver cancer cell line, were cultured on 10-cm cell culture dishes (TPP Techno Plastic Products AG, Trasadingen, Switzerland) by using DMEM under conditions at 5% CO2, 37° C., and 100% humidity. When the cells were 70 to 90% confluent, 200 μL of 0.25% Trypsin/1 mM EDTA solution, which had been prepared by diluting the stock solution 10-fold with PBS (−), was added to detach the cells. Then, the cells were centrifuged at 1000 rpm for 3 min at room temperature. The cells recovered were subcultured at a 1:4 split ratio.
First, 70 to 90% confluent HuH-7 cells were harvested and seeded (n=3) at 5×10^3 cells/well of a 96-well plate (TPP). After 24 h, each compound was added to the cells and the mixture was cultured at 37° C. The concentrations of each compound were 0, 10, 20, 30, 40, and 50 μM. For IC-2-506-1, however, the concentrations used were 0, 10, 20, 25, 30, 40, and 50 μM. Each control sample (0 μM) used was 0.1% DMSO, a solvent for each compound.
Next, 0, 24, 48, and 96 h after the compound treatment, 100 μIL of DMEM-diluted 10% Cell Counting Kit-8 (DOJINDO LABORATORIES, Kumamoto) was added. The mixture was incubated at 37° C. for 60 min and its absorbance (at a measurement wavelength of 450 nm/control wavelength of 600 nm) was measured by using a Sunrise Rainbow RC (Tecan Group Ltd., Mannedorf, Switzerland). Absorbance for the cells alone was calculated by subtracting, from the reading obtained, absorbance for 10% Cell Counting Kit-8 alone.
The “*” in figures indicates a significant difference of p<0.05 between 0.1% DMSO and each compound; and the “**” indicates a significant difference of p<0.01 (the same applies to all the figures in Examples).

[2] = tested on: LX-2 cells; assay: Anti-fibrosis effect, summary statements on Example 3 (marker not specified)
Text: α-Smooth muscle actin (α-SMA), a fibrosis marker, was used as an indicator, and RNA was collected from LX-2 cells treated with each low-molecular-weight compound. Next, an inhibitory effect on fibrosis was examined by real-time RT-PCR.
In addition, instead of α-SMA, another fibrosis marker collagen, type I, alpha 1 (COL1A1) was used as an indicator, and substantially the same protocol was repeated. The concentrations of each compound used were as described in FIG. 34. Each control sample used was 0.1% DMSO, a solvent for each compound. Here, COL1A1 primers used were 5′-CCT CCA GGG CTC CAA CGA G-3′ and 5′-TCAATCACTGTCTTGCCCCA-3′. The annealing was performed at 58° C. for 5 sec. The measurement results were obtained by dividing the calculated value for the COL1A1 gene by the calculated value for the GAPDH gene.

[3] = tested on: mesenchymal stem cell; assay: Hepatocyte differentiation-inducing effect, summary statements on Example 4 (readout not specified)
Text: Albumin, a hepatocyte marker, was used as an indicator, and RNA was collected from cells treated with each compound. Next, a hepatocyte differentiation-inducing effect was examined by real-time RT-PCR. The concentrations of the respective compounds were as described in FIG. 35. Each control sample used was 0.1% DMSO, a solvent for each compound.
By using urea synthesis, a hepatocyte function, as an indicator, a hepatocyte differentiation-inducing effect of each compound was investigated.
The cells treated with each compound were subjected to immunofluorescence analysis of albumin, a hepatocyte marker, to investigate a hepatocyte differentiation-inducing effect. The concentrations of the respective compounds were as described in FIG. 37. Each control sample used was 0.1% DMSO, a solvent for each compound.
By using glycogen synthesis, a hepatocyte function, as an indicator, a hepatocyte differentiation-inducing effect of each compound was investigated.

[4] = tested on: Wnt/β-catenin signaling; assay: Inhibitory effect on Wnt/β-catenin signaling in liver stellate cells (LX-2, TCF4 luciferase); details: concentration equal to or lower than that of IC-2
Method: While each compound was added at concentrations where the cell growth of fibrosis-causing liver stellate LX-2 cells was reduced to about 50 to 80%, Wnt/β-catenin signaling activity was measured. […] The concentrations of the respective compounds were as described in FIG. 41. Each control sample used was 0.1% DMSO, a solvent for each compound.
LX-2 cells, which were cultured and maintained by using 10% FBS/DMEM, were harvested and seeded (n=3) in 1% FBS/DMEM at 4.0×10^4 cells per well of a 24-well plate. Next, 25 μL of Opti-MEM (Gibco, Life Technologies Corp., Carlsbad, Calif.) containing 50 ng of pTCF4-CMVpro-GL4.20, having 3 copies of TCF motifs (CCT TTG ATC) upstream of a CMV promoter in a multiple cloning site of pGL4.20 (Promega), and 5 ng of pRL-CMV Vector (Promega) and 25 μL of Opti-MEM containing 0.4 μL of Lipofectamine 2000 (Invitrogen, Life Technologies Corp., Carlsbad, Calif.) were mixed and incubated at room temperature for 20 min. At 20 h after the cell seeding, the mixture was added to each well, so that both reporter plasmids were transiently transfected into the cells. After additional 4 h, 2.5 ng/mL of TGF-β and each compound were added to the cells and the mixture was cultured at 37° C.
At 24 and 48 h after the compound treatment, the culture medium was discarded, and 100 μL of room temperature 5×Passive Lysis Buffer (PLB), which had been diluted 5-fold with MilliQ water, was added to each well. Next, the plate was shaken at room temperature for 15 min and was then frozen at −30° C. overnight. A Luciferase Assay Substrate was diluted with 10 mL of room temperature Luciferase Assay Buffer II to prepare Luciferase Assay Reagent II (LARII). Then, 1 μL of Stop&Glo Substrate was diluted with 49 μL of room temperature Stop&Glo Buffer to prepare Stop&Glo (Promega) in a quantity enough for samples.
The frozen PLB lysate samples were thawed and permeabilized for 15 min. After that, 50 μl aliquots of LARII were dispensed into 3.5 mL test tubes (Sarstedt, AG & Co., Numbrecht, Germany) and 10 μL of each frozen PLB lysate sample was added and mixed well. Subsequently, luminescence was quantified by using a MiniLumat LB 9506 (Berthold Technologies GmbH & Co, Bad Wildbad, Germany) to measure firefly luciferase activity. After the measurement, 50 μL of Stop&Glo was added and mixed well and luminescence was then quantified by using the MiniLumat LB 9506 to determine Renilla luciferase activity. The measurement results were obtained by dividing the firefly luciferase activity by the Renilla luciferase activity.

[5] = tested on: Wnt/β-catenin signaling; assay: Inhibitory effect on Wnt/β-catenin signaling in liver cancer cells (HuH7-TCF4 luciferase); details: concentration equal to or lower than that of IC-2
Method: A pTCF4-CMVpro-GL4.20 plasmid vector, which had been constructed by inserting 3 copies of TCF4 motifs (CCT TTG ATC) upstream of a CMV promoter into a multiple cloning site of pGL4.20 (Promega Corp., Fitchburg, Wis.), was linearized and stably transfected into the HuH-7 cells. The resulting stable cells (HuH7-TCF4 cells) and HuH-7 cells were likewise cultured.
While each compound was added at concentrations where the growth of HuH-7 cells was reduced to about 50% or less, Wnt/β-catenin signaling activity was measured. The concentrations of the respective compounds were as described in FIG. 40. Control samples used were 0.1% DMSO, a solvent for each compound, and 0.5 μM 5-FU.
First, 70 to 90% confluent HuH7-TCF4 cells were harvested and seeded (n=3) at 5.0×10^4 cells/well of a 24-well plate (TPP). After 24 h, each compound was added to the cells and the mixture was cultured at 37° C.
At 48 h after the compound treatment, the culture medium was discarded, and 100 μL of room temperature 5×Passive Lysis Buffer (PLB) (Promega Corp., Fitchburg, Wis.), which had been diluted 5-fold with MilliQ water, was added to each well. Next, the plate was shaken at room temperature for 15 min and was then frozen at −30° C. overnight. A Luciferase Assay Substrate was diluted with 10 mL of room temperature Luciferase Assay Buffer II to prepare Luciferase Assay Reagent II (LARII) (Promega). The frozen PLB lysate samples were thawed and permeabilized for 15 min. Then, 10 μL aliquots were added to wells of a 96-well white plate (Corning Inc., Corning, N.Y.). While 50 μL aliquots of LARII were each added to each well, luminescence was quantified by using a 1420 multi-label counter ARVO MX (PerkinElmer Singapore Pte Ltd., Singapore) to determine firefly luciferase activity. Note that a significant difference was evaluated by using (two-tailed) Student's t-test. The “*” in figures indicates a significant difference of p<0.05 between 0.1% DMSO and each compound; and the “**” indicates a significant difference of p<0.01 (the same applies to all the figures in Examples).

SMILES	IC50 [1]	IC50 compared with IC-2 [1]	anti-fibrosis effect compared with IC-2, equal or higher concentration ([2]; concentration equal to or higher than that of IC-2)	hepatocyte-inducing effect compared with IC-2 ([3]; concentration higher than that of IC-2)	inhibitory effect on Wnt/β-catenin signaling pathway in liver stellate cells compared with IC-2 [4]	anti-tumor effect compared with IC-2 ([1]; at a concentration lower than that of IC-2)	anti-fibrosis effect compared with IC-2, lower concentration ([2]; concentration even lower than that of IC-2)	hepatocyte-inducing effect at low concentration ([3]; low concentration)	inhibitory effect on Wnt/β-catenin signaling pathway in liver cancer cells compared with IC-2 [5]
O=C1C(Cc2ccccc2)N2C(=O)CCN(C(=O)NCc3ccccc3)C2CN1Cc1ccc(Cl)cc1Cl (stereo not drawn) [IC-2-506-2]	25.6 µM	lower IC50 than IC-2	more potent anti-fibrosis effect	more potent hepatocyte-inducing effect	more potent inhibitory effect	–	–	–	–
O=C1C(Cc2ccccc2)N2C(=O)CCN(C(=O)NCc3ccc(Cl)cc3)C2CN1Cc1cccc2ccccc12 (stereo not drawn) [IC-2-Cl]	14.4 µM	lower IC50 than IC-2	–	–	more potent inhibitory effect	more potent anti-tumor effect	more potent anti-fibrosis effect	exerted a hepatocyte-inducing effect	more potent inhibitory effect
